Measurements as given in patent publication US6541493B1, “Crystals of 5-[{6-(2-fluorobenzyl)oxy-2-naphthyl}methyl]-2,4-thiazolidinedione” (Mitsubishi Chemical Corporation, priority 1999, dated 2003).
Entries after “also recorded” stand apart in the source; their conditions may differ.

Key:
Type in all cases: physicochemical
[1] = Stability in a solvent (heated with stirring in suspension); conditions: heated with stirring in suspension in water, methylene chloride, hexane, ethyl acetate-hexane and ethanol
Source text: The type A crystals were heated with stirring in a state of suspension in a variety of solvents including water, methylene chloride, hexane, ethyl acetate-hexane and ethanol, and then examined the absence or presence of a change of the crystal form after the treatment.

[2] = Stability to physical impact (grinding in agate mortar, powder X-ray diffraction); conditions: 1 g ground for 1 minute in agate mortar, powder X-ray diffraction pattern compared with before grinding
Experimental: A sample (1 g) of each of the type A-D crystals was placed in an agate mortar, and ground for 1 minute, and powder X-ray diffraction pattern of the ground sample was determined. The pattern was compared with that of the crystal form before the grinding to examine a change of the crystal form.

[3] = Thermal stability (oven heating, powder X-ray diffraction); conditions: about 50 mg in glass bottle, under atmosphere in oven at 70° C. for 24 hours
Experimental: A sample (about 50 mg) of each of the crystals of types A, C and D was placed in a transparent glass bottle, and heated under atmosphere in an oven at 70° C. for 24 hours. After cooling, powder X-ray diffraction pattern was measured to examine a change of the crystal form.

O=C1NC(=O)C(Cc2ccc3cc(OCc4ccccc4F)ccc3c2)S1 (centres unmarked) [Crystal form A, 5-[{6-(2-fluorobenzyl)oxy-2-naphthyl}methyl]-2,4-thiazolidinedione]
Change of the crystal form after treatment in solvents [1]: no change | Change after grinding ([2]; listed as A): No change | Change of the crystal form after heating ([3]; listed as type A): no change

O=C1NC(=O)C(Cc2ccc3cc(OCc4ccccc4F)ccc3c2)S1 (centres unmarked) [Crystal form B, 5-[{6-(2-fluorobenzyl)oxy-2-naphthyl}methyl]-2,4-thiazolidinedione]
Change after grinding ([2]; listed as B): Partial changes; also recorded: Partially changed

O=C1NC(=O)C(Cc2ccc3cc(OCc4ccccc4F)ccc3c2)S1 (centres unmarked) [Crystal form C, 5-[{6-(2-fluorobenzyl)oxy-2-naphthyl}methyl]-2,4-thiazolidinedione]
Change after grinding ([2]; listed as C): No change | Change of the crystal form after heating ([3]; listed as type C): partial change

O=C1NC(=O)C(Cc2ccc3cc(OCc4ccccc4F)ccc3c2)S1 (centres unmarked) [Crystal form D, 5-[{6-(2-fluorobenzyl)oxy-2-naphthyl}methyl]-2,4-thiazolidinedione]
Change after grinding ([2]; listed as D): Partial changes; also recorded: Partially changed | Change of the crystal form after heating [3]: no change
